Source: patent US20060051316A1, “Remedy” (priority 2002, published 2006)

Key:
[1] = tested on: BMP-2 production of human osteosarcoma cell strain HuO9; test: Enhancing activity for BMP-2 production, enzyme immunoassay of culture medium; assay type: cell-based; conditions: for Enhancing Activity for BMP-2 Production: HuO9; for Enhancement of BMP-2 production (result in words): HuO9 cells
Description: Human osteosarcoma cell strain HuO9 was suspended in a DMEM medium (manufactured by Bio Whittaker) containing 10% fetal bovine serum (manufactured by Bio Whittaker) so as to have a concentration of 1×10^5 cells/ml. The suspension was put into a 96-well plate in an amount of 0.1 ml per well, and the cells were cultured sterilely. After the cells were cultured for 2 days, the medium was exchanged with a fresh medium. The fucoidan derived from Kjellmaniella crassifolia obtained in item (1) of Reference Example 1 was added thereto as a sample, and the cells were cultured for 48 hours. Next, the concentration of bone morphogenetic protein-2 (BMP-2) in the culture medium was measured with enzyme immunoassay method (BMP-2 Immunoassay: manufactured by GT). The enhancing activity for BMP-2 production was expressed by setting as a control one without addition of the sample, and defining the BMP-2 concentration in the cell culture medium (the amount of BMP-2 production of a cell) as 100%.

[2] = tested on: Mouse embryo derived cell strain C3H10T1/2; test: Induction of differentiation into osteoblasts, alkaline phosphatase activity in cells; assay type: cell-based; conditions: for Alkaline Phosphatase Activity: 7 days, C3H10T1/2, control = 100%, average of two experiments
Description: Mouse embryo derived cell strain C3H10T1/2 was suspended in a DMEM medium containing 10% fetal bovine serum so as to have a concentration of 3×10^4 cells/ml. The suspension was put into a 96-well plate in an amount of 0.1 ml per well, and the cells were cultured sterilely. After the cells were cultured for 3 days, the medium was exchanged with a fresh medium. Heparan sulfate, or the Chlorella sulfated polysaccharide fraction CSP-I or CPS-II obtained in Reference Example 4 was added thereto as a sample, and the cells were cultured for 7 days. Subsequently, differentiation of C3H10T1/2 into osteoblasts was determined using an increase of the alkaline phosphatase activity in the cells as an index. The cells were washed once with PBS. One-hundred microliters of a reaction substrate solution (100 mM diethanolamine buffer pH 10.0, 2 mM magnesium chloride, 1 mM p-nitrophenyl phosphoric acid) was added thereto, and the reaction was carried out at 37° C. for 30 minutes. Next, 100 μl of 0.2 N sodium hydroxide was added thereto to stop the reaction, and the amount of p-nitrophenol which was released was determined with an absorbance at 405 nm. The alkaline phosphatase activity when a sample was added was expressed by setting as a control one without addition of the sample, wherein the alkaline phosphatase activity of the control was defined as 100%. The activity indicates an induction activity of differentiation into osteoblasts. The experiments were carried out twice, and the average value was taken.

[3] = 10 μg/ml, control = 100% (0.083 ng/ml)
[4] = 100 μg/ml, control = 100% (0.083 ng/ml carrageenans, 0.070 ng/ml low-molecular-weight heparin)
[5] = 10 μg/ml, control = 100% (0.110 ng/ml)
[6] = 100 μg/ml, control = 100% (0.110 ng/ml)
[7] = 500 μg/ml, control = 100% (0.201 ng/ml for 7-12SFd-F, 0.130 ng/ml for chondroitin sulfate B and pectic acid)
[8] = 1000 μg/ml, control = 100% (0.201 ng/ml for 7-12SFd-F, 0.130 ng/ml for chondroitin sulfate B and pectic acid)

## carrageenan λ
[1]; [3]
  Enhancing Activity for BMP-2 Production: 359.6%
[1]; [4]
  Enhancing Activity for BMP-2 Production: 485.5%
[1]
  Enhancement of BMP-2 production (result in words): enhance BMP-2 production in a concentration-dependent manner

## carrageenan κ
[1]; [3]
  Enhancing Activity for BMP-2 Production: 219.3%
[1]; [4]
  Enhancing Activity for BMP-2 Production: 263.3%
[1]
  Enhancement of BMP-2 production (result in words): enhance BMP-2 production in a concentration-dependent manner

## O=C(/C=C/c1ccc(O)c(O)c1)O[C@@H]1C[C@](O)(C(=O)O)C[C@@H](O)[C@H]1O [Chlorogenic Acid, chlorogenic acid]
[1]; 88.6 μg/ml, control = 100% (0.041 ng/ml)
  Enhancing Activity for BMP-2 Production: 319.5%
[1]; 177.2 μg/ml, control = 100% (0.041 ng/ml)
  Enhancing Activity for BMP-2 Production: 320.4%
[1]
  Enhancement of BMP-2 production (result in words): enhance BMP-2 production in a concentration-dependent manner

## heparin
[1]; [5]
  Enhancing Activity for BMP-2 Production: 435.1%
[1]; [6]
  Enhancing Activity for BMP-2 Production: 1339%
[1]
  Enhancement of BMP-2 production (result in words): enhance BMP-2 production in a concentration-dependent manner

## chondroitin sulfate B
[1]; [7]
  Enhancing Activity for BMP-2 Production: 524.5%
[1]; [8]
  Enhancing Activity for BMP-2 Production: 846.2%
[1]
  Enhancement of BMP-2 production (result in words): enhance BMP-2 production in a concentration-dependent manner

## carrageenan ι
[1]; [3]
  Enhancing Activity for BMP-2 Production: 201.2%
[1]; [4]
  Enhancing Activity for BMP-2 Production: 517.5%
[1]
  Enhancement of BMP-2 production (result in words): enhance BMP-2 production in a concentration-dependent manner

## low-molecular-weight heparin
[1]; [4]
  Enhancing Activity for BMP-2 Production: 390.0%
[1]; 1000 μg/ml, control = 100% (0.070 ng/ml)
  Enhancing Activity for BMP-2 Production: 807.1%
[1]
  Enhancement of BMP-2 production (result in words): enhance BMP-2 production in a concentration-dependent manner

## pectic acid
[1]; [7]
  Enhancing Activity for BMP-2 Production: 220.3%
[1]; [8]
  Enhancing Activity for BMP-2 Production: 242.1%
[1]
  Enhancement of BMP-2 production (result in words): enhance BMP-2 production in a concentration-dependent manner

## dextran sulfate
[1]; [5]
  Enhancing Activity for BMP-2 Production: 2789%
[1]; [6]
  Enhancing Activity for BMP-2 Production: 2984%
[1]
  Enhancement of BMP-2 production (result in words): enhance BMP-2 production in a concentration-dependent manner

## Heparan sulfate
[2]; 10 μg/ml
  Alkaline Phosphatase Activity: 132.2%
[2]; 100 μg/ml
  Alkaline Phosphatase Activity: 178.0%
[2]; C3H10T1/2 cells
  Induction of differentiation into osteoblasts (result in words): induce differentiation into osteoblasts in a concentration-dependent manner
